Results published in US20240156790A1, “COMPOUNDS, COMPOSITIONS, AND METHODS FOR MODULATING FERROPTOSIS AND TREATING EXCITOTOXIC DISORDERS” (THE TRUSTEES OF COLUMBIA UNIVERSITY IN THE CITY OF NEW YORK, priority 2018, published 2024).
Entries after “also recorded” stand apart in the source; their conditions may differ. Read-outs that look alike come from different tables or passages of the source.

Columns and labels:
[1] = Plasma stability, pig (Table 1); format: in vitro ADME
[2] = Human; value marked ^1, Hofmans et al., 2016; cited from earlier work
[3] = test system: HT-1080 cells; test: Rescue activity of Fer-1 analogs: inhibition of erastin-, IKE- or RSL3-induced death (Alamar Blue viability); format: cell-based
[4] = TH-2-31, TH-4-55-2, TH-4-67 PK Study (IP, IV, PO; plasma and brain); format: in vivo, C57BL/6 mice; details: for Cmax brain (nM) / concentration in brain following IV administration (rapid accumulation) / half-life / concentration at 24 h / Cmax: 20 mg/kg; for half-life / concentration at 24 h / Cmax: both sexes, C57BL/6, mouse; for half-life: read-out: in vivo brain t1/2; for brain penetrance / accumulation in brain over plasma, in words: mouse, in vivo; for stability / accumulation in plasma in vivo, in words: up to 24 hours
Procedure: C57BL/6 mice (8-weeks of age and ˜25 g weight) were weighed before injection and divided into groups of two male and female mice per cage. Compound was dissolved in 5% DMSO/95% of 1:1 [(65% v/v of 25% w/v 2-hydroxypropyl-3-cyclodextrin (Cayman Chemical) dissolved in 20% EtOH, 30% v/v Poly(ethylene glycol)-400 (Sigma Aldrich 202398), 5% v/v Tween 80 (Fluka 59924)):MilliQ water] to create a 2 mg/mL solution. The same formulation without compound was used as a vehicle control. The solution was sterilized using a […] Steriflip filter unit (Thomas Scientific 1189Q46). Mice were dosed IP, IV, and PO routes of administration and euthanized by CO2 asphyxiation for 3 min at 0, 1, 2, 4, 8, and 24 h after administration. To ensure that the vehicle was well-tolerated 4 mice were treated with vehicle and euthanized 4 h after administration. ˜0.5 mL of blood was collected via cardiac puncture and immediately put in K3 EDTA microtubes ([…] 41.1504.105) and kept on ice. Organs were harvested, placed in Eppendorf tubes, and frozen on dry ice. Blood samples were centrifuged for 10 min at 2,100×g at 4° C., then plasma was transferred to a clean tube and frozen on dry ice. Organ samples were weighed and placed in hard tissue homogenizing tubes (Omni International 19-628) and a volume of DEPC-treated nuclease-free water (IBI Scientific IB42200) was added to make a 500 mg/mL solution and homogenized using the Omni Bead Ruptor 4 at speed 5 for 30 seconds. Compound was extracted from plasma or organ homogenate by adding 900 μL acetonitrile to 100 μL plasma or organ homogenate. Samples were mixed by vortexing and allowed to extract overnight at 4° C. prior to mixing for at least 5 min by rotating at room temperature, vortexing, and sonicating for at least 30 second prior to centrifugation for 10 min at 4,000×g and 4° C. The supernatant was then transferred to a glass vial and analyzed by UPLC-MS described below. The concentration of each analog was determined against a standard curve with a nonlinear fit and the data plot in GraphPad Prism 9 and fit with a one phase decay.
Samples from animal studies were analyzed via UPLC-MS using a Waters Xevo G2-Xs QTof Mass spectrometer equipped with an Acquity UPLC. Chromatographic separation was carried out at 50° C. on a Acquity UPLC BEH C18 column (1.7 μm, 2.1 mm×50 mm, pore size 130 Å) over a 4.5 min gradient elution. The flowrate was held constant at 0.8 mL/min. Mobile phase A consisted of water and mobile phase B consisted of ACN both containing 0.1% formic acid. After injection, the gradient was held at 50% A for 0.25 min. For the next minute, the gradient was ramped in a linear fashion to 100% B and held at this composition for 0.5 min. The eluent composition returned to the initial condition in 0.01 min and the column was re-equilibrated for 2.74 min before the next injection. Injection volumes were 0.5 μL (TH-2-31 40 mg/kg) and 1 μL for all other conditions. The Xevo G2-Xs was operated in positive electrospray ionization (ESI) mode. A capillary voltage and sampling cone voltage of 0.5 kV and 30 V were used. The source and desolvation temperatures were kept at 120° C. and […], respectively. Nitrogen was used as the desolvation gas with a flowrate of 750 L/hr. The protonated molecular ion of leucine encephalin ([M+H]^+, m/z 556.2771 was used as a lock mass for mass accuracy and reproducibility. Leucine enkephalin was introduced to the lock mass at a concentration of 2 ng/mL (50% ACN containing 0.1% formic acid), and a flow rate of […]. To avoid signal saturation, the signal transmission was attenuated to <10%, based off the signal intensity of the highest standard concentration for the duration of the run. The data was collected over the mass range m/z 50 to 1200 Da with an acquisition time of 0.1 seconds per scan. The retention time for each analog is detailed below. […]

[5] = plasma, all routes of administration, read-out: concentration in plasma 24 hours after administration

CCOC(=O)c1ccc(NC2CCCCC2)c(N)c1 [Fer-1, Ferrostatin-1, reference compound]
Plasma Stability at six hours (% remaining) [1]: Pig: 100%
Microsomal Stability t1/2 [2]: 6.9 ± 0.2 min
EC50 ([3]; Homo sapiens, ^a 50% viability, HT-1080 cells treated with 10 μM erastin): 50 nM

CCC(CC)Nc1cc(-c2nc(C)no2)cnc1NC1CCCCC1 [TH-4-55-2, N^2-cyclohexyl-5-(3-methyl-1,2,4-oxadiazol-5-yl)-N^3-(pentan-3-yl)pyridine-2,3-diamine]
Cmax brain/ IC50 ([4]; IP): 1,765
Cmax brain (nM) ([4]; IP): 3,936 nM
Cmax brain/ IC50 ([4]; IV): 35,567
Cmax brain (nM) ([4]; IV): 79,314 nM
concentration in brain following IV administration (rapid accumulation) ([4]; IV): > 75 µM
Cmax brain/ IC50 ([4]; PO): 632
Cmax brain (nM) ([4]; PO): 1,410 nM
time present in plasma at μM concentrations ([4]; all routes of administration): up to 8 hours
half-life ([4]; brain, ip, R.O.A. IP): > 8 h
half-life ([4]; brain, iv, R.O.A. IV): < 1 h
concentration at 24 h ([4]; brain, other: IP and PO, IP and PO administration, read-out: concentration in brain 24 hours post administration): > 1 µM
half-life ([4]; brain, po, R.O.A. PO): > 24 h
Cmax ([4]; plasma, ip): 63.8 µM
Cmax ([4]; plasma, iv): 32.1 µM
Cmax ([4]; plasma, po): 2.93 µM
concentration at 24 h [4, 5]: > 0.8 µM
brain penetrance / accumulation in brain over plasma, in words [4]: preferentially accumulate in brain over plasma for all time-points following IV administration
stability / accumulation in plasma in vivo, in words [4]: accumulated the most

Cc1noc(-c2cnc(NC3CCCC3)c(NC3CCCC3)c2)n1 [TH-4-67, N^2,N^3-dicyclopentyl-5-(3-methyl-1,2,4-oxadiazol-5-yl)pyridine-2,3-diamine]
Cmax brain/ IC50 ([4]; IP): 1,389
time present in plasma at μM concentrations ([4]; IP administration): up to 2 hours
Cmax brain (nM) ([4]; IP): 2,916 nM
Cmax brain/ IC50 ([4]; IV): 24,820
Cmax brain (nM) ([4]; IV): 52,121 nM
concentration in brain following IV administration (rapid accumulation) ([4]; IV): > 50 µM
Cmax brain/ IC50 ([4]; PO): 740
time present in plasma at μM concentrations ([4]; PO and IV administration): up to 1 hour
Cmax brain (nM) ([4]; PO): 1,554 nM
concentration at 24 h ([4]; brain, all routes of administration, read-out: concentration in brain 24 hours post administration): < 0.2 µM
half-life ([4]; brain, iv, R.O.A. IV): < 1 h
Cmax ([4]; plasma, ip): 82.1 µM
Cmax ([4]; plasma, iv): 40.6 µM
Cmax ([4]; plasma, po): 1.77 µM
concentration at 24 h [4, 5]: < 0.025 µM
stability / accumulation in plasma in vivo, in words [4]: accumulated the least; also recorded: the least stable

Cc1noc(-c2cnc(NC3CCCCC3)c(NC3CCCCC3)c2)n1 [TH-2-31, N^2,N^3-dicyclohexyl-5-(3-methyl-1,2,4-oxadiazol-5-yl)pyridine-2,3-diamine]
Cmax brain/ IC50 ([4]; IP): 633
Cmax brain (nM) ([4]; IP): 2,133 nM
Cmax brain/ IC50 ([4]; IV): 99,335
Cmax brain (nM) ([4]; IV): 334,759 nM
concentration in brain following IV administration (rapid accumulation) ([4]; IV): greater than 300 μM
Cmax brain/ IC50 ([4]; PO): 353
Cmax brain (nM) ([4]; PO): 1,190 nM
half-life ([4]; brain, ip, R.O.A. IP): > 8 h
half-life ([4]; brain, iv, R.O.A. IV): < 1 h
concentration at 24 h ([4]; brain, iv, read-out: concentration in brain 24 hours after administration): 10 µM
half-life ([4]; brain, po, R.O.A. PO): > 24 h
Cmax ([4]; plasma, ip): 50.9 µM
Cmax ([4]; plasma, iv): 25.8 µM
Cmax ([4]; plasma, po): 2.24 µM
concentration at 24 h [4, 5]: > 0.5 µM
brain penetrance / accumulation in brain over plasma, in words [4]: preferentially accumulate in brain over plasma for all time-points following IV administration

Cc1noc(-c2ccc(NC3CCCCC3)c(NC3CCCCC3)c2)n1 [PHB4082, N1,N2-dicyclohexyl-4-(3-methyl-1,2,4-oxadiazol-5-yl)benzene-1,2-diamine]
increase in potency compared to fer-1 ([3]; suppressing erastin-induced ferroptosis): 7 fold
